Test results from publication PMC6270165, “Synthesis and Biological Evaluation of 3-Benzisoxazolyl-4-indolylmaleimides as Potent, Selective Inhibitors of Glycogen Synthase Kinase-3β” (Molecules, 2013).

Key:
IKK2 = molecular target: T1, IKK2 (Homo sapiens, UniProt O14920); assay: IKK2 (IKKβ) kinase assay (HTRF); assay type: biochemical; details: read-out: IKK2 inhibition% at 0.8 μg/mL (~2 μM)
T1 construct: His-tag (N); made in house
T1 sequence (O14920 1-756): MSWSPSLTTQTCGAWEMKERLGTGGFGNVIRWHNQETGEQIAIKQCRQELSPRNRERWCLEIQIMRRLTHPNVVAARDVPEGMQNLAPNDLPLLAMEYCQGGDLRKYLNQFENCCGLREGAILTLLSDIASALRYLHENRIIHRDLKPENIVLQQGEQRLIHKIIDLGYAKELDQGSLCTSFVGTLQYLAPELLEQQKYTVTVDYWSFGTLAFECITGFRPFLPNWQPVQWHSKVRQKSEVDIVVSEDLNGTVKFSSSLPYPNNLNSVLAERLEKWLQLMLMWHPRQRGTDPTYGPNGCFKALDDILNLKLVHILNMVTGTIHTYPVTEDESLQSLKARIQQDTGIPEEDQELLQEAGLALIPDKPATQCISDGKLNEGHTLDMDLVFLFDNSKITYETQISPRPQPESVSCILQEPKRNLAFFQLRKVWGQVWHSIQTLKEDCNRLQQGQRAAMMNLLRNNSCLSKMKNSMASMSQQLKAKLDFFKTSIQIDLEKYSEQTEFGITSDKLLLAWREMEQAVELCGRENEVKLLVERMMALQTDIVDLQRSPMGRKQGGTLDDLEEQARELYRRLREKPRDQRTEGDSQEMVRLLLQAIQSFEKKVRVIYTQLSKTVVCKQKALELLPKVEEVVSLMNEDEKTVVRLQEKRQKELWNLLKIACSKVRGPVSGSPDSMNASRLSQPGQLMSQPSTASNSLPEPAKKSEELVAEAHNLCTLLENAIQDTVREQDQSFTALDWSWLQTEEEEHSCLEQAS
Procedure: (§1) GSK3β belongs to CMGC family. Here, the other family members were used to evaluate the selectivity of GSK3β inhibitors, including PKC-epsilon (AGC family), JAK2 (TK family), Braf (TKL family), DRAK2 (CAMK family) and IKKβ (other family).The recombinant GST-GSK-3βprotein was expressed in Escherichia coli strain BL21-Codon Plus (DE3), purified by GSTrap affinity chromatography, and cleaved by thrombin. The GSK-3β kinase assay was carried out with the Z´-LYTETM Kinase Assay kit Ser/Thr 9 Peptide substrate (Invitrogen, Grand, NY, USA) in 10 μL reaction volume containing 50 nM enzyme, 30 μM ATP and 2 μM substrate peptide. Drak2 Proteins were presented by professor Jiang-ping Wu (Laboratory of Immunology, Research Centre, CHUM, Notre Dame Hospital, Pavilion DeSève). The Drak2 kinase reaction was performed in a final assay volume of 3.4 μL using the ADP-GLO Kinase Assay Kit (Promega, Madison, WI, USA), according the ADP-GLO protocol and read on an EnVision plate reader. The recombinant PKC-epsilon, IKKβ, and JAK2 with N-terminal His-tag were expressed using baculovirus expression system and purified with Ni-Beads. BRAF protein was from Carna Biosciences, Inc. (Kobe Port Island, Japan). And the related kinase reactions were performed in a final assay volume of 10 μL using the related HTRF Assay Kit (Cisbio, Codolet, France). Reactions were according the HTRF protocol and read on an EnVision plate reader. All reactions were carried out in triplicate. […] Data were expressed as mean ± SE.

Drak2 = molecular target: T2, Drak2 (Homo sapiens, UniProt O94768); assay: Drak2 kinase assay (ADP-GLO); assay type: biochemical; details: read-out: Drak2 inhibition% at 0.8 μg/mL (~2 μM)
T2 sequence (O94768 1-372): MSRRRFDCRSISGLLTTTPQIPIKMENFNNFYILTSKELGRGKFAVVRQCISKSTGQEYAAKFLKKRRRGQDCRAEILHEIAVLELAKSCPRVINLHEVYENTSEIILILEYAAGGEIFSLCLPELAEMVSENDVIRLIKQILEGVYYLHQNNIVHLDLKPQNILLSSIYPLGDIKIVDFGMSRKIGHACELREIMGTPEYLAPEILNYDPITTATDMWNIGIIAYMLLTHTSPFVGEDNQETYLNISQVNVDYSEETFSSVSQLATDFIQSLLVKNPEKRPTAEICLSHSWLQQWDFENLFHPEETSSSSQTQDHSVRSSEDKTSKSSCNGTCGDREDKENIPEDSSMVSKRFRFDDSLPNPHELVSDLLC
Procedure: as §1

inhibition at 2 µM (IKK2): 13.1%
inhibition at 2 µM (Drak2): 1.67%
SMILES: O=C1NC(=O)C(c2cn(CCCN3CCOCC3)c3ccc(Br)cc23)=C1c1noc2ccccc12 [7c, 3-(Benzo[d]isoxazol-3-yl)-4-(5-bromo-1-(3-morpholinopropyl)-1H-indol-3-yl)-1H-pyrrole-2,5-dione]
